The results in this text go back to patent US20250360145A1, “CSF-1R INHIBITORS AND USES THEREOF” (Myrobalan Therapeutics, Inc., priority 2022, published 2025).

Like-named read-outs stand apart in the source and are kept apart here.

The test system of assay [1] is Ba/F3_CSF-1R (stably expressing human CSF-1R kinase). Put plainly: Cell proliferation assay, Ba/F3_CSF-1R. The assay is classed as cell-based.
For assay [2], the system named is EOC2 cell. Kind of assay: Cell proliferation assay, EOC2. Format: cell-based, mouse. The settings on record: EOC2 cells, 72 hours treatment, read-out: ECO2 EC50.
For assay [3], the target named is CSF-1R (Homo sapiens (Human), UniProt P07333). Put plainly: Biochemical HTRF kinase assay, CSF-1R.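 Note: enzyme incubated with inhibitor plus a substrate and ATP mix for one hour at room temperature before HTRF detection.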 The settings on record: Table 2; recombinant human CSF-1R.
Chain of CSF-1R (P07333 20-972): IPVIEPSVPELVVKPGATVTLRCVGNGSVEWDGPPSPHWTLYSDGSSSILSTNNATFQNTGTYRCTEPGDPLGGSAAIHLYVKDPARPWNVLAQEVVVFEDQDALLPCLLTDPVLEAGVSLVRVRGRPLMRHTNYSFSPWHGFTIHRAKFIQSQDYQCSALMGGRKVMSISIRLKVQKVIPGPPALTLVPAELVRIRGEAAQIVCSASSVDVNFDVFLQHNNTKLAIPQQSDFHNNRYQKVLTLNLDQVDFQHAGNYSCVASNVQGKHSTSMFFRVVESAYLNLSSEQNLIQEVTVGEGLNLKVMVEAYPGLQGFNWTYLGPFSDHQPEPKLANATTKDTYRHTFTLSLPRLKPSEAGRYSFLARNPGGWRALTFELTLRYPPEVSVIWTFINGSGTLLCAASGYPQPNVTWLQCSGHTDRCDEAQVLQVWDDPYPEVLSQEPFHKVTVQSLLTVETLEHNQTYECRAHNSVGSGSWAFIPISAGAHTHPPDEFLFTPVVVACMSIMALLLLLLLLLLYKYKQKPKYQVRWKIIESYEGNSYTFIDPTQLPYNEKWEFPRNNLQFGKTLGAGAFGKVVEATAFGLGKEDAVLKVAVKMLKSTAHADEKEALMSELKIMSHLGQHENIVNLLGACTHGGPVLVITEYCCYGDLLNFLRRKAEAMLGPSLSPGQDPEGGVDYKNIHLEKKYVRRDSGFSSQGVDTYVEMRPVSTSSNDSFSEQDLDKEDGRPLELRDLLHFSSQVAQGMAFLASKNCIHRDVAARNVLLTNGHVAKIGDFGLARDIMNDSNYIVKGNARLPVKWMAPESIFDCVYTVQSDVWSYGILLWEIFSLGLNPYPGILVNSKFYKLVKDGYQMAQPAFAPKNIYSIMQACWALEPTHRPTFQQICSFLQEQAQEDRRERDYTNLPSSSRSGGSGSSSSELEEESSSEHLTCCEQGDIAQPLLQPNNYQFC
[4] abbreviates: BaF3, 72 h, Ba/F3_CSF-1R cells, 72 hours treatment, read-out: CSF-1R BaF3 EC50.

For orientation: EC50 means the concentration giving half of the maximal effect. Usually IC50 stands for the concentration at which inhibition is half-maximal.

As for `COc1ccc(COc2ncc(Cc3ccnc4cc(C)cnc34)cc2OC)nc1` [Example 63], the EC50 in assay [1] (setting [4]) is 236 nM; in assay [2] (Mus musculus, 72 h), 688 nM. The IC50 in assay [3] stood at 16.7 nM.
On the same counts, the results for `COc1ccc2c(Cc3ccc(OCc4ccn5nccc5c4)c(OC)c3)ccnc2c1` [Example 30] are 214 nM, 249 nM and 7.9 nM.
In the case of `COc1cnc2c(Cc3cnc(OCc4nc5cccnc5n4C)c(OC)c3)ccnc2c1` [Example 132], the 50% effective concentration (EC50) in assay [1] (setting [4]) is above 1000 nM; in assay [2] (Mus musculus, 72 h), above 1000 nM. In addition, in assay [3], the half-inhibitory concentration (IC50) is 879 nM.
In the case of `COc1ccc(COc2ncc(Cc3ccnc4cc(F)cnc34)cc2OC)nc1` [Example 64], the EC50 in assay [1] (setting [4]) was determined as 400 nM; in assay [2] (Mus musculus, 72 h), 973 nM. Also, the half-maximal inhibitory concentration (IC50) in assay [3] came out at 21.8 nM.
Consider `COc1ccc(COc2ncc(Cc3ccnc4cc(-c5cnc(C)s5)cnc34)cc2OC)nc1` [Example 138, 5-(8-((5-methoxy-6-((5-methoxypyridin-2-yl)methoxy)pyridin-3-yl)methyl)-1,5-naphthyridin-3-yl)-2-methylthiazole], for which the EC50 in assay [1] (BaF3, 72 h, read-out: CSF-1R BaF3 EC50 (nM)) turned out to be 1.8 nM; in assay [2] (Mus musculus, 72 h), 2.2 nM. Also, the IC50 in assay [3] was determined as 12.6 nM.
As to `COCc1cc(COc2ncc(Cc3ccnc4cc(OC)cnc34)cc2OC)nn1C` [Example 96], the half-maximal effective concentration (EC50) turned out to be 234 nM in assay [1] (setting [4]) and 190 nM in assay [2] (Mus musculus, 72 h). Also, the IC50 in assay [3] stood at 16.2 nM.
As for `COc1ccc(COc2ncc(C(F)c3ccnc4cc(OC)cnc34)cc2OC)nc1` (stereo not drawn) [Example 84, 8-(fluoro(5-methoxy-6-((5-methoxypyridin-2-yl)methoxy)pyridin-3-yl)methyl)-3-methoxy-1,5-naphthyridine], the EC50 was above 1000 nM in assay [1] (setting [4]) and above 1000 nM in assay [2] (Mus musculus, 72 h). Further, in assay [3], the IC50 is 28.4 nM.
In the case of `COc1cnc2c(Cc3cnc(OCc4cc(C)n(C5CN(C)C5)n4)c(OC)c3)ccnc2c1` [Example 91], the EC50 was found to be 753 nM in assay [1] (setting [4]) and 388 nM in assay [2] (Mus musculus, 72 h). In addition, the IC50 in assay [3] turned out to be 40.6 nM.
Regarding `COc1cnc2c(Cc3cnc(OCc4cc5n(n4)CCCO5)c(OC)c3)ccnc2c1` [Example 86], the EC50 in assay [1] (setting [4]) was determined as 290 nM; in assay [2] (Mus musculus, 72 h) it was 183 nM. Further, in assay [3], the 50% inhibitory concentration (IC50) stood at 4.4 nM.
The like results for `COc1cnc2c(Cc3ccc4nc(N5CCC(OC)CC5)ncc4c3)ccnc2c1` [Example 152] were, in that order, above 1000 nM, above 1000 nM and above 1000 nM.
Take `COc1cnc2c(Cc3cnc(OCc4ccc(C5CN(C)C5)cn4)c(OC)c3)ccnc2c1` [Example 89]: the 50% effective concentration (EC50) is above 1000 nM in assay [1] (setting [4]) and above 1000 nM in assay [2] (Mus musculus, 72 h). Further, in assay [3], the IC50 turned out to be 286 nM.
Regarding `COc1cnc2c(Cc3cnc(OCc4ccc(C(F)(F)F)cn4)c(OC)c3)ccnc2c1` [Example 61], the EC50 was determined as 70.6 nM in assay [1] (setting [4]) and 47.4 nM in assay [2] (Mus musculus, 72 h). Besides, the IC50 in assay [3] was 3.9 nM.
As to `COc1cnc2c(Cc3cnc(OCc4cnc(OC)nc4)c(OC)c3)ccnc2c1` [Example 50], the EC50 in assay [1] (setting [4]) was 481 nM; in assay [2] (Mus musculus, 72 h) it was 312 nM. The IC50 in assay [3] stood at 15.2 nM.
As for `COc1ccc2c(Cc3ccc(OCc4ccc(C(F)(F)F)cc4)c(OC)c3)ccnc2c1` [Example 14], the EC50 in assay [1] (setting [4]) came out at 157 nM; in assay [2] (Mus musculus, 72 h), 132 nM. Further, in assay [3], the IC50 is 118 nM.
`CCc1cc(COc2ncc(Cc3ccnc4cc(OC)cnc34)cc2OC)on1` [Example 57]: the EC50 amounted to 178 nM in assay [1] (setting [4]) and 98.6 nM in assay [2] (Mus musculus, 72 h). Further, the IC50 in assay [3] was 19 nM.
As to `COc1ccc(COc2ccc(Cc3ccnc4cc(OC)cnc34)cc2OC)cc1` [Example 4], the EC50 in assay [1] (setting [4]) amounted to 44.6 nM; in assay [2] (Mus musculus, 72 h) it was 22.6 nM. In addition, the IC50 in assay [3] came out at 8.7 nM.
With `[2H]C([2H])(c1cnc(OCc2ccc(OC)cn2)c(OC)c1)c1ccnc2cc(OC)cnc12` [Example 95], the EC50 in assay [1] (setting [4]) came out at 42.2 nM; in assay [2] (Mus musculus, 72 h) it was 54.3 nM. For the same compound, the IC50 in assay [3] stood at 3.4 nM.
Consider `COc1ccc2c(Cc3ccc(OCc4ccc5nccn5c4)c(OC)c3)ccnc2c1` [Example 7], for which the EC50 in assay [1] (setting [4]) came out at 305 nM; in assay [2] (Mus musculus, 72 h), 328 nM. Also, in assay [3], the IC50 is 5.3 nM.
For `COc1ccc2c(Cc3cnc(OCc4cnn(C)c4)c(OC)c3)ccnc2c1` [Example 31], the EC50 in assay [1] (setting [4]) is above 1000 nM; in assay [2] (Mus musculus, 72 h) it was above 1000 nM. Besides, the IC50 in assay [3] was 21.3 nM.
For `COc1ccc(COc2ccc(Cc3ccnc4cnccc34)cc2OC)cc1` [Example 2, 4-(3-methoxy-4-((4-methoxybenzyl)oxy)benzyl)-1,7-naphthyridine], the EC50 in assay [1] (setting [4]) amounted to 75 nM; in assay [2] (Mus musculus, 72 h), 126 nM. The 50% inhibitory concentration (IC50) in assay [3] is 13.4 nM.
Turning to `COc1ccc(COc2ncc(Cc3ccnc4cc(N5CC(F)(F)C5)cnc34)cc2OC)nc1` [Example 144], the EC50 turned out to be 10.7 nM in assay [1] (setting [4]) and 25.3 nM in assay [2] (Mus musculus, 72 h). In addition, in assay [3], the IC50 was found to be 11.3 nM.
Turning to `COc1cnc2c(Cc3cnc(OCc4cc5n(n4)[C@H]4C[C@H]4C5)c(OC)c3)ccnc2c1` [Example 111], the concentration for a half-maximal effect (EC50) in assay [1] (setting [4]) was 35 nM; in assay [2] (Mus musculus, 72 h), 17.4 nM. In assay [3], the 50% inhibitory concentration (IC50) was found to be 2.2 nM.
Turning to `COCc1ccc(COc2ncc(Cc3ccnc4cc(OC)cnc34)cc2OC)nc1` [Example 71], the EC50 in assay [1] (setting [4]) turned out to be 359 nM; in assay [2] (Mus musculus, 72 h), 168 nM. The IC50 in assay [3] was 25.4 nM.
The like results for `COc1cnc(COc2ccc(Cc3ccnc4cc(OC)ccc34)cc2OC)nc1` [Example 40] were, in that order, above 1000 nM, 956 nM and 93.7 nM.
`COc1ccc(COc2ncc(Cc3ccnc4cc(OC)cnc34)cc2OC(F)F)nc1` [Example 68, 8-((5-(difluoromethoxy)-6-((5-methoxypyridin-2-yl)methoxy)pyridin-3-yl)methyl)-3-methoxy-1,5-naphthyridine]: the EC50 in assay [1] (setting [4]) was above 1000 nM; in assay [2] (Mus musculus, 72 h), above 1000 nM. In addition, the half-inhibitory concentration (IC50) in assay [3] came out at 99.2 nM.
Regarding `COc1cnc2c(Cc3cnc(OCc4cnn(C(C)C)c4)c(OC)c3)ccnc2c1` [Example 43], the 50% effective concentration (EC50) in assay [1] (setting [4]) was above 1000 nM; in assay [2] (Mus musculus, 72 h), above 1000 nM. Besides, in assay [3], the IC50 came to 2.8 nM.
Turning to `COc1cnc2c(Cc3cnc(OCc4cc5n(n4)C[C@H](C(F)(F)F)C5)c(OC)c3)ccnc2c1` [Example 110], the EC50 in assay [1] (setting [4]) stood at 109 nM; in assay [2] (Mus musculus, 72 h), 36.2 nM. Also, the IC50 in assay [3] was found to be 3.4 nM.
As for `COc1ccc2c(Cc3ccc(OCc4ccc5c(c4)OC(F)(F)O5)c(OC)c3)ccnc2c1` [Example 33], the EC50 worked out at 218 nM in assay [1] (setting [4]) and 89.5 nM in assay [2] (Mus musculus, 72 h). In addition, the IC50 in assay [3] amounted to 203 nM.
On the same counts, the results for `COc1ccc2c(Cc3ccc(OCc4ccn5ccnc5c4)c(OC)c3)ccnc2c1` [Example 6, 4-(4-(imidazo[1,2-a]pyridin-7-ylmethoxy)-3-methoxybenzyl)-7-methoxy quinoline] are 551 nM, 592 nM and 8.2 nM.
`COc1cnc2c(Cc3cnc(OCc4ccc(OC)nn4)c(OC)c3)ccnc2c1` [Example 32, 3-methoxy-8-((5-methoxy-6-((6-methoxypyridazin-3-yl)methoxy)pyridin-3-yl)methyl)-1,5-naphthyridine]: the EC50 amounted to 267 nM in assay [1] (setting [4]) and 129 nM in assay [2] (Mus musculus, 72 h). The 50% inhibitory concentration (IC50) in assay [3] came to 20.1 nM.
For the compound `COc1ccc(COc2ncc(Cc3c(F)cnc4cc(OC)cnc34)cc2OC)nc1` [Example 146], the EC50 is above 1000 nM in assay [1] (setting [4]) and above 1000 nM in assay [2] (Mus musculus, 72 h). The concentration for half-maximal inhibition (IC50) in assay [3] amounted to 208 nM.
In the case of `COc1cnc2c(Cc3ccc4nc([C@H]5CC[C@@H](OC)CC5)cnc4c3)ccnc2c1` [Example 155], the EC50 in assay [1] (Ba/F3_CSF-1R cells, 72 hours treatment, read-out: CSF-1R BaF3 EC50) was 607 nM; in assay [2] it was above 1000 nM. The IC50 in assay [3] was found to be 258 nM.
`COc1ccc2c(Cc3ccc(OCc4ccc5ncnn5c4)c(OC)c3)ccnc2c1` [Example 21]: the concentration giving a half-maximal response (EC50) in assay [1] (setting [4]) came out at 509 nM; in assay [2] (Mus musculus, 72 h), 492 nM. Moreover, the IC50 in assay [3] worked out at 12.6 nM.
Turning to `COc1cnc2c(Cc3cnc(OCc4cnc(C)s4)c(OC)c3)ccnc2c1` [Example 42], the EC50 in assay [1] (setting [4]) was 510 nM; in assay [2] (Mus musculus, 72 h), 408 nM. The IC50 in assay [3] stood at 14.7 nM.
`COc1ccc(COc2ccc(Cc3ncnc4cc(OC)ccc34)cc2OC)cc1` [Example 5]: the EC50 in assay [1] (setting [4]) was determined as 263 nM; in assay [2] (Mus musculus, 72 h), 310 nM. The IC50 in assay [3] was determined as 21 nM.
The like results for `COc1cnc2c(Cc3cnc(OCc4cc(C5COC5)no4)c(OC)c3)ccnc2c1` [Example 90] were, in that order, 282 nM, 154 nM and 17.4 nM.
Regarding `COc1ccc2c(Cc3ccc(OCc4cc(C)no4)c(OC)c3)ccnc2c1` [Example 34], the EC50 in assay [1] (setting [4]) amounted to 493 nM; in assay [2] (Mus musculus, 72 h), 462 nM. Also, the IC50 in assay [3] was determined as 23.2 nM.
Consider `COc1cnc2c(Cc3ccc4nc([C@H]5CC[C@@H](OC)CC5)cnc4c3)ccnc2c1` [Example 154], for which the EC50 was found to be 329 nM in assay [1] (setting [4]) and 199 nM in assay [2]. Further, the IC50 in assay [3] was determined as 28.6 nM.
With `COc1cnc2c(Cc3cnc(OCc4cc5n(n4)C(C)COC5)c(OC)c3)ccnc2c1` (stereo not drawn) [Example 103], the EC50 in assay [1] (setting [4]) came out at 41.7 nM; in assay [2] (Mus musculus, 72 h), 26 nM. For the same compound, in assay [3], the IC50 amounted to 1.9 nM.
With `COc1cnc2c(Cc3cnc(OCc4ccc(CN(C)C)cn4)c(OC)c3)ccnc2c1` [Example 85], the EC50 in assay [1] (setting [4]) was above 1000 nM; in assay [2] (Mus musculus, 72 h) it was above 1000 nM. The IC50 in assay [3] was determined as 110 nM.
Turning to `COc1ccc(COc2ncc(Cc3ccnc4cc(N5CCC5)cnc34)cc2OC)nc1` [Example 127], the 50% effective concentration (EC50) in assay [1] (setting [4]) is 28 nM; in assay [2] (Mus musculus, 72 h), 25.4 nM. In addition, in assay [3], the IC50 stood at 22.3 nM.
With `COc1cnc2c(Cc3cnc(OCc4cc(C(C)OC)n(C)n4)c(OC)c3)ccnc2c1` (stereo not drawn) [Example 102], the EC50 was determined as 134 nM in assay [1] (setting [4]) and 77 nM in assay [2] (Mus musculus, 72 h). Besides, the IC50 in assay [3] is 4 nM.
